# Reference: paper PMC9783868, “Indoline-5-Sulfonamides: A Role of the Core in Inhibition of Cancer-Related Carbonic Anhydrases, Antiproliferative Activity and Circumventing of Multidrug Resistance” (Pharmaceuticals, 2022)
# How the values were obtained:
# K562/4 cells = assay: Reversal of chemoresistance to Dox, MTT test; assay type: cell-based, human
# Description: Earlier, Kopecka and colleagues have shown that CA XII can interact with P-gp and influence its activity. Subsequently, silencing or inhibition of CA XII by chemical agents may restore the sensitivity to Dox of resistant K562 and other tumor cells. Given the potent inhibition of 4f against CA XII and the activity of 4e against K562, we examined their ability to reverse the chemoresistance of K562/4 with P-gp to Dox.
# The MCF7 human breast, A431 human skin cancer cells and K562 (ATCC CCL-243) chronic myelogenous leukemia cells were obtained from the ATCC collection. The MDR subline K562/4 [77] (kind gift of Dr. Alexander Shtil, Blokhin N.N. National Medical Research Center of Oncology) was obtained by stepwise selection of K562 cells for survival under continuous exposure to Dox. This subline expresses the MDR1 gene and functional P-gp and is characterized by a high resistance index for Dox. The MCF7 and A431 cells were cultured in standard 4.5 g/L glucose DMEM medium (Gibco) supplemented with 10% FCS (HyClone), 2 mM L-glutamine, 50 U/mL penicillin, 50 µg/mL streptomycin (PanEco), 100 µg/mL sodium pyruvate (Santa Cruz) at 37 °C, 5% CO2 and 80–85% humidity in NuAire incubator. Suspension myelogenous leukemia cells (K562, K562/4) were propagated in RPMI-1640 (PanEco) with 5% FCS (HyClone), 2 mM L-glutamine, 100 U/mL penicillin, and 100 µg/mL streptomycin at 37 °C, 5% CO2, and 80–85% humidity in Binder incubator. Cells in the logarithmic phase of growth were used in the experiments. The growth inhibitory activity of compounds was assessed by the MTT test based on the metabolism of the MTT reagent (3-[4,5-dimethylthiazol-2-yl]-2,5-diphenyltetrazolium bromide) (Applichem) in living cells, with modifications as described previously in [49]. Compounds at different concentrations in 100 μL of the appropriate medium were added, and the cells were grown for 72 h. The hypoxia (1% O2) conditions were simulated in Binder multigas incubator, as described in [49]. After incubation with compounds, the medium was removed, the MTT reagent that was dissolved in the medium was added to the final concentration of 0.2 mg/mL to each well, and the incubation was performed for 2 h. Then the cell supernatants were removed, and purple formazan crystals were dissolved in 100% DMSO (350 μL per well). Culture plates were gently shaken, and the absorbance was measured at 571 nm with a reference wavelength of 630 nm on a MultiScan reader (ThermoFisher, Waltham, MA, USA). The viability of the cells was expressed as a percentage of the control. Dose-response curves were analyzed by regression analysis using sigmoid curves (Log(concentration) vs. normalized absorbance).
# Figure 6 Susceptibility of resistant K562/4 line to combinations of Dox (25 µM) with indoline-5-sulfonamides 4e and 4f. […]
# A431 skin cancer cells = assay: Antiproliferative activity, MTT test; assay type: cell-based, human; conditions: 72 h, hypoxic conditions
# Description: To evaluate the influence of CA inhibition on the antiproliferative activity, we selected five compounds 4b, f, m, n and 10 with different inhibition profiles against CA IX for in-depth testing on cancer cells with increased CA IX expression. The database www.proteinatlas.org (accessed on 13 October 2022) contains data on gene expression in various cell lines. According to the data obtained from this database, A431 cells express CA IX at a very high level, which distinguishes them from human cell lines belonging to other tissues [https://www.proteinatlas.org/ENSG00000107159-CA9/cell+line (accessed on 13 October 2022)]. A431 cells are skin cancer cells, and their growth has already been intensely analyzed in hypoxia. […] Moreover, Ren and colleagues described that hypoxia modulates cellular pathways in A431 cells, which are associated with radioresistance and enhanced migration. Given the observations described above, we were expecting to reveal the high antiproliferative activity of the selected compounds against skin cancer cells. […] In hypoxia, the activity of tested compounds was increased, but the 50% inhibition of growth was never achieved.
# The MCF7 human breast, A431 human skin cancer cells and K562 (ATCC CCL-243) chronic myelogenous leukemia cells were obtained from the ATCC collection. The MDR subline K562/4 [77] […] The growth inhibitory activity of compounds was assessed by the MTT test based on the metabolism of the MTT reagent (3-[4,5-dimethylthiazol-2-yl]-2,5-diphenyltetrazolium bromide) (Applichem) in living cells, with modifications as described previously in [49]. […] Culture plates were gently shaken, and the absorbance was measured at 571 nm with a reference wavelength of 630 nm on a MultiScan reader (ThermoFisher, Waltham, MA, USA). The viability of the cells was expressed as a percentage of the control. Dose-response curves were analyzed by regression analysis using sigmoid curves (Log(concentration) vs. normalized absorbance).
smiles,measurement,setting,value
"NS(=O)(=O)c1ccc2c(c1)CCN2C(=O)c1cccc(Cl)c1 [Compound 4f, 1-(3-Chlorobenzoyl)indoline-5-sulfonamide]",effect of combination with Dox on viable K562/4 cells,K562/4 cells; combination with Dox (25 µM),decline of viable K562/4 cells
same,cytotoxic activity against MDR subline K562/4 as monoagent,K562/4 cells; monoagent,low cytotoxic activity
same,"inhibition of growth of A431 cells, hypoxia",A431 skin cancer cells,44%
